Experimental data published in patent publication US20250171438A1 (Agios Pharmaceuticals, Inc., priority 2022, published 2025).

Target: T1, human PAH with the R408W mutation (Homo sapiens, UniProt P00439, R408W)
T1 construct: expressed in transfected cells
T1 sequence (P00439 1-452 R408W): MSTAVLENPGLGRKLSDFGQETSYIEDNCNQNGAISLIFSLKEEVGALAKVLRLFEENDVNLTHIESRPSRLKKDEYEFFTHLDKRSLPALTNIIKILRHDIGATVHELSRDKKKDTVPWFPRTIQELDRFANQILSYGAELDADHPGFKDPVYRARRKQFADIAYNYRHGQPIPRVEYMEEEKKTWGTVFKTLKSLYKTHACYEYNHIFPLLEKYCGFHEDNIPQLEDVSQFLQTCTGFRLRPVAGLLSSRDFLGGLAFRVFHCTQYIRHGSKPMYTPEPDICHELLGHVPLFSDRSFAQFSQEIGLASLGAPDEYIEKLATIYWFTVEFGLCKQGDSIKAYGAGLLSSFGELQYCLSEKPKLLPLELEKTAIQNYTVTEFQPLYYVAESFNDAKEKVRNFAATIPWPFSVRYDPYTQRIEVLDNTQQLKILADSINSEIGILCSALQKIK
Assay: Cell Based Phenylalanine Flux Assay
Conditions: A375 cells expressing human R408W PAH; 24 hrs compound incubation; 13C-Tyrosine by LC-MS; average where tested multiple times; read-out: AC50

| AC50 | Molecule |
| --- | --- |
| > 5000 nM | Cn1nc(C(F)F)nc1C(=O)N1CCc2[nH]cnc2[C@@H]1c1nc2ccccc2s1 [Example 2172, (R)-(4-(benzo[d]thiazol-2-yl)-6,7-dihydro-1H-imidazo[4,5-c]pyridin-5(4H)-yl)(3-(difluoromethyl)-1-methyl-1H-1,2,4-triazol-5-yl)methanone] |
| 500 to 1000 nM | Cc1ccc2sc([C@@H]3c4nc[nH]c4CCN3C(=O)c3cnco3)nc2c1 [Example 2173, (S)-(4-(5-methylbenzo[d]thiazol-2-yl)-6,7-dihydro-1H-imidazo[4,5-c]pyridin-5(4H)-yl)(oxazol-5-yl)methanone] |
| > 5000 nM | Cc1ccc2sc([C@H]3c4nc[nH]c4CCN3C(=O)c3cnco3)nc2c1 [Example 2174, (R)-(4-(5-methylbenzo[d]thiazol-2-yl)-6,7-dihydro-1H-imidazo[4,5-c]pyridin-5(4H)-yl)(oxazol-5-yl)methanone] |
| 500 to 1000 nM | Cc1ccc2nc([C@@H]3c4nc[nH]c4CCN3C(=O)c3cnco3)sc2c1 [Example 2175, (S)-(4-(6-methylbenzo[d]thiazol-2-yl)-6,7-dihydro-1H-imidazo[4,5-c]pyridin-5(4H)-yl)(oxazol-5-yl)methanone] |
| 500 to 1000 nM | O=C(c1ocnc1-c1ccccc1)N1CCc2[nH]cnc2[C@H]1c1nc2c(F)cccc2s1 [Example 2177, (S)-(4-(4-fluorobenzo[d]thiazol-2-yl)-6,7-dihydro-1H-imidazo[4,5-c]pyridin-5(4H)-yl)(4-phenyloxazol-5-yl)methanone] |
| > 5000 nM | O=C(c1ocnc1-c1ccccc1)N1CCc2[nH]cnc2[C@@H]1c1nc2c(F)cccc2s1 [Example 2178, (R)-(4-(4-fluorobenzo[d]thiazol-2-yl)-6,7-dihydro-1H-imidazo[4,5-c]pyridin-5(4H)-yl)(4-phenyloxazol-5-yl)methanone] |
| < 500 nM | Cc1cccc2nc([C@@H]3c4nc[nH]c4CCN3C(=O)c3cnco3)sc12 [Example 2179, (S)-(4-(7-methylbenzo[d]thiazol-2-yl)-6,7-dihydro-1H-imidazo[4,5-c]pyridin-5(4H)-yl)(oxazol-5-yl)methanone] |
| > 5000 nM | Cc1cccc2nc([C@H]3c4nc[nH]c4CCN3C(=O)c3cnco3)sc12 [Example 2180, (R)-(4-(7-methylbenzo[d]thiazol-2-yl)-6,7-dihydro-1H-imidazo[4,5-c]pyridin-5(4H)-yl)(oxazol-5-yl)methanone] |
| < 500 nM | CC(C)(C)c1ncoc1C(=O)N1CCc2[nH]cnc2[C@H]1c1nc2c(F)cccc2s1 [Example 2181] |
| 1000 to 5000 nM | CC(C)(C)c1ncoc1C(=O)N1CCc2[nH]cnc2[C@@H]1c1nc2c(F)cccc2s1 [Example 2182, (R)-(4-(tert-butyl)oxazol-5-yl)(4-(4-fluorobenzo[d]thiazol-2-yl)-6,7-dihydro-1H-imidazo[4,5-c]pyridin-5(4H)-yl)methanone] |
| < 500 nM | O=C(c1oc(C2CC2)nc1C(F)(F)F)N1CCc2[nH]cnc2[C@H]1c1nc2c(F)cccc2s1 [Example 2183, (S)-(2-cyclopropyl-4-(trifluoromethyl)oxazol-5-yl)(4-(4-fluorobenzo[d]thiazol-2-yl)-1,4,6,7-tetrahydro-5H-imidazo[4,5-c]pyridin-5-yl)methanone] |
| < 500 nM | O=C(c1oc(C2CC2)nc1C(F)(F)F)N1CCc2[nH]cnc2[C@@H]1c1nc2c(F)cccc2s1 [Example 2184, (R)-(2-cyclopropyl-4-(trifluoromethyl)oxazol-5-yl)(4-(4-fluorobenzo[d]thiazol-2-yl)-1,4,6,7-tetrahydro-5H-imidazo[4,5-c]pyridin-5-yl)methanone] |
| < 500 nM | O=C(c1oc(C2(O)CC2)nc1C(F)(F)F)N1CCc2[nH]cnc2[C@H]1c1nc2c(F)cccc2s1 [Example 2185, (S)-(4-(4-fluorobenzo[d]thiazol-2-yl)-1,4,6,7-tetrahydro-5H-imidazo[4,5-c]pyridin-5-yl)(2-(1-hydroxycyclopropyl)-4-(trifluoromethyl)oxazol-5-yl)methanone] |
| 1000 to 5000 nM | O=C(c1oc(C2(O)CC2)nc1C(F)(F)F)N1CCc2[nH]cnc2[C@@H]1c1nc2c(F)cccc2s1 [Example 2186, (R)-(4-(4-fluorobenzo[d]thiazol-2-yl)-1,4,6,7-tetrahydro-5H-imidazo[4,5-c]pyridin-5-yl)(2-(1-hydroxycyclopropyl)-4-(trifluoromethyl)oxazol-5-yl)methanone] |
| 1000 to 5000 nM | ((4R)-4-(benzo[d]thiazol-2-yl)-3a,4,6,7,8,8a-hexahydroimidazo[4,5-c]azepin-5(1H)-yl)(4-cyclopropyloxazol-5-yl)methanone [Example 2168] |
| 1000 to 5000 nM | ((4R,7R)-4-(benzo[d]thiazol-2-yl)-7-methyl-6,7-dihydro-1H-imidazo[4,5- [Example 1587] |
| 1000 to 5000 nM | (R)-2-((4-(6-bromo-1H-benzo[d]imidazol-2-yl)-6,7-dihydro-1H-imidazo[4,5-c]pyridin-5(4H)-yl)methyl)thiazole [Example 968] |
| > 5000 nM | (R)-2-((4-(6-fluoro-1H-benzo[d]imidazol-2-yl)-6,7-dihydro-1H-imidazo[4,5-c]pyridin-5(4H)-yl)methyl)thiazole [Example 972] |
| 1000 to 5000 nM | (R)-(4-(benzo[d]thiazol-2-yl)-6,7-dihydro-1H-imidazo[4,5-c]pyridin-5(4H)-yl)(2-(1-methyl-3-(trifluoromethyl)-1H-pyrazol-4-yl)thiazol-5-yl)methanone [Example 1390] |
| 1000 to 5000 nM | (R)-(5-(difluoromethyl)-1-methyl-1H-pyrazol-4-yl)(4-(4-fluorobenzo[d]thiazol-2-yl)-6,7-dihydro-1H-imidazo[4,5-c]pyridin-5(4H)-yl)methanone [Example 1744] |

| Molecule | AC50 |
| --- | --- |
| (R)-(4-(benzo[d]thiazol-2-yl)-6,7-dihydro-1H-imidazo[4,5-c]pyridin-5(4H)-yl)(6-bromopyrazolo[1,5-a]pyridin-3-yl)methanone [Example 1046] | 1000 to 5000 nM |
| (R)-(4-bromothiazol-5-yl)(4-(4-fluorobenzo[d]thiazol-2-yl)-6,7-dihydro-1H-imidazo[4,5-c]pyridin-5(4H)-yl)methanone [Example 1618] | 500 to 1000 nM |
| (R,Z)-1-(4-(1H-benzo[d]imidazol-2-yl)-6,7-dihydro-1H-imidazo[4,5-c]pyridin-5(4H)-yl)-2-(5-(prop-1-en-1-yl)-4-vinylthiazol-2-yl)ethanone [Example 904] | > 5000 nM |
| (S)-(4-(benzo[d]thiazol-2-yl)-6,7-dihydro-1H)-imidazo[4,5-c]pyridin-5(4H)-yl)(6-bromopyrazolo[1,5-a]pyridin-3-yl)methanone [Example 1045] | 500 to 1000 nM |
| (S)-(4-bromothiazol-5-yl)(4-(4- fluorobenzo[d]thiazol-2-yl)-6,7-dihydro-1H)- imidazo[4,5-c]pyridin-5(4H)-yl)methanone [Example 1617] | < 500 nM |
